This note sets out measurements from ChEMBL document CHEMBL3352784, “Investigation of Cardiovascular Effects of Tetrahydro-β-carboline sstr3 antagonists” (ACS Med Chem Lett, 2014).

A value given as a limit tells only on which side of the number the result lay.

The target in data set [1] is T1, Somatostatin receptor type 3 (Mus musculus, UniProt P30935). The data set is described as follows: Antagonist activity at mouse SSTR3 expressed in CHO cells assessed as cAMP level by fluorescence analysis. The data set is classed as functional, cell-based.
T1 sequence (P30935 whole entry): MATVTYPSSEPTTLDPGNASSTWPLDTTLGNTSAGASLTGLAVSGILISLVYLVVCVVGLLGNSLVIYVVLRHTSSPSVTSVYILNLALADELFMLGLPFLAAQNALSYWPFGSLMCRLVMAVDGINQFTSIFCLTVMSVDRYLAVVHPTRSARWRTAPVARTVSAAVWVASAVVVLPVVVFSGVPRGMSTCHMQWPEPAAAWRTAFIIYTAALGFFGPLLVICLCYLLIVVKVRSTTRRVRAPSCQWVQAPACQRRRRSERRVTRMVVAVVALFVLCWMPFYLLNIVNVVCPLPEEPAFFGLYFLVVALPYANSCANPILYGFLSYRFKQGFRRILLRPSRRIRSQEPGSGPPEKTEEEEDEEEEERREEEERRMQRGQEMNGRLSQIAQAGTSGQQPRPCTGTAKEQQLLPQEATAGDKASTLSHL
Data set [2] concerns the target T2, Somatostatin receptor type 3 (Homo sapiens, UniProt P32745). Kind of data set: biochemical.
Description: Displacement of [125I]SS-14 from human SSTR3 expressed in CHO cells by TopCount analyzer
In data set [3] the target is T2, Somatostatin receptor type 3.
Description: Antagonist activity at human SSTR3 expressed in CHO cells assessed as cAMP level by fluorescence analysis
Data set [4] has as its target T1, Somatostatin receptor type 3. The data set is classed as cell-based, CHO.
For data set [5], the target named is Somatostatin receptor type 3 (Mus musculus) (UniProt P30935). Kind of data set: Antagonist activity at mouse SSTR3 expressed in CHO cells assessed as cAMP level by fluorescence analysis relative to control. The data set is classed as functional, cell-based. Details: concentration or dose not given beside the values. Conditions: concentration not given here. On the technique in general: cAMP levels reflect the balance of adenylyl cyclase and phosphodiesterase activity.
Chain of Somatostatin receptor type 3 (Mus musculus) (P30935 whole entry): as above

Data set [6] addresses Voltage-gated inwardly rectifying potassium channel KCNH2 (Homo sapiens, UniProt Q12809).
Description: Inhibition of human ERG by MK-499 displacement binding analysis
In data set [7] the test system is Mus musculus. Kind of data set: Antidiabetic activity in C57BL/6 mouse assessed as reduction in glucose excursion at 1 mg/kg, ip by oGTT assay relative to MK-4256. The data set is classed as functional. The following applies: C57BL/6, ip, route intraperitoneal.
The nature of data set [8]: Plasma concentration in C57BL/6 mouse at 1 mg/kg, ip after 2.5 hrs. The data set is classed as ADME, organism-based. Further details: dose 1 mg/kg, route intraperitoneal.
Data set [9] relates to Canis familiaris. Kind of data set: Toxicity in anesthetized vagus-intact cardiovascular dog model assessed as QTc interval prolongation at 909 uM plasma concentration. The data set is classed as organism-based, Canis lupus familiaris.
The nature of data set [10]: Oral bioavailability in mouse. The data set is classed as ADME, organism-based. The following applies: in vivo.
Data set [11] is described as follows: Half life in mouse. The data set is classed as ADME, organism-based. Conditions: in vivo.
The target in data set [12] is Somatostatin receptor type 4 (Homo sapiens, UniProt P31391). The data set is classed as cell-based, CHO.
Chain of Somatostatin receptor type 4 (P31391 whole entry): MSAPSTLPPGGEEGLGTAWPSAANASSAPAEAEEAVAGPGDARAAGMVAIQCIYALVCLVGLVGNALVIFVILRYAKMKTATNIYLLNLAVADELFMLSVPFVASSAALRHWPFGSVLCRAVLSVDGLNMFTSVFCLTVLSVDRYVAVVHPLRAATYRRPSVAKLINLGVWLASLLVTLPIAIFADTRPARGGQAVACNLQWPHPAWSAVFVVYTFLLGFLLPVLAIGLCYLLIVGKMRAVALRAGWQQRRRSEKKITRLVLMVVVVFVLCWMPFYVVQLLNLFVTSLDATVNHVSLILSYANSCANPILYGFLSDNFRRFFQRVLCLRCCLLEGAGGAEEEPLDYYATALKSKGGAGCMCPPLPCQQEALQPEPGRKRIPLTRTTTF
Data set [13] concerns Mus musculus. The data set is described as follows: Antidiabetic activity in C57BL/6 mouse assessed as reduction in glucose excursion at 3 mg/kg, po by oGTT assay relative to MK-4256. The data set is classed as functional.
Data set [14] in a line: in vivo. Conditions: dog, iv, 10 mg/kg.
Data set [15] concerns the target Somatostatin receptor type 2 (Homo sapiens, UniProt P30874). The data set is classed as cell-based, CHO.
A short description of data set [16]: in vivo. Conditions: dog, iv, 50 mg/kg.
Data set [17] is described as follows: Plasma concentration in C57BL/6 mouse at 3 mg/kg, po after 2.5 hrs. Details: dose 3 mg/kg, route oral. The data set is classed as ADME, organism-based.
The test system of data set [18] is Mus musculus. Kind of data set: Antidiabetic activity in C57BL/6 mouse assessed as reduction in glucose excursion at 3 mg/kg, po by oGTT assay relative to control. The data set is classed as functional. The following applies: C57BL/6, read-out: INH.
Data set [19] can be described thus: Plasma concentration in C57BL/6 mouse at 10 mg/kg, po after 2.5 hrs. The data set is classed as ADME, organism-based. Further details: dose 10 mg/kg, route oral.
Data set [20] concerns the target Somatostatin receptor type 5 (Homo sapiens, UniProt P35346). The data set is classed as cell-based, CHO.
The target of data set [21] is Somatostatin receptor type 1 (Homo sapiens, UniProt P30872). The data set is classed as cell-based, CHO.
Chain of Somatostatin receptor type 1 (P30872 whole entry): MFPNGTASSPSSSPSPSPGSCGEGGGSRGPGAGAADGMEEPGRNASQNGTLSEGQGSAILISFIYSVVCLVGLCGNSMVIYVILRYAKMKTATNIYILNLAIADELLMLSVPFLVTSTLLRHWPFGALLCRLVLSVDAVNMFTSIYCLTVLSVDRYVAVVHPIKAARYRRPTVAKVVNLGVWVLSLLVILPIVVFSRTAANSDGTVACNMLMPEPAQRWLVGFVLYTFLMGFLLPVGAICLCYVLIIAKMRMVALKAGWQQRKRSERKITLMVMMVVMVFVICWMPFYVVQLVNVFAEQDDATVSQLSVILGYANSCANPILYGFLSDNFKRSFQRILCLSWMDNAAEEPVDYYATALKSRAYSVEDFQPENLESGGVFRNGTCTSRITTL
Data set [22] can be described thus: Clearance in mouse. The data set is classed as ADME, organism-based. Conditions: in vivo.
In data set [23] the test system is Mus musculus. The data set is described as follows: Antidiabetic activity in C57BL/6 mouse assessed as reduction in glucose excursion at 10 mg/kg, po by oGTT assay relative to MK-4256. The data set is classed as functional.
Data set [24] is described as follows: in vivo. Conditions: dog, iv, 20 mg/kg.

T2 sequence (P32745 whole entry): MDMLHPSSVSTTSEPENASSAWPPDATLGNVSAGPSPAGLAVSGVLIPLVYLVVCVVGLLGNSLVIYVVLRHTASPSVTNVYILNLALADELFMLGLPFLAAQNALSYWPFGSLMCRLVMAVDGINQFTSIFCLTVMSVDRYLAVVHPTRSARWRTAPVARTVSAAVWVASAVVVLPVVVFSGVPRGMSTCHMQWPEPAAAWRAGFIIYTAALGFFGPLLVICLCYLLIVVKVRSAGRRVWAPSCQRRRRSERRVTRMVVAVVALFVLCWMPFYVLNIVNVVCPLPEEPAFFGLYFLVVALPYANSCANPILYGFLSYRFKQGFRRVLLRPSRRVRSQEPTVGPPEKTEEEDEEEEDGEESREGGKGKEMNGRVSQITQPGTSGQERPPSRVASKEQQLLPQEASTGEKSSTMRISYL
Chain of Voltage-gated inwardly rectifying potassium channel KCNH2 (Q12809 whole entry): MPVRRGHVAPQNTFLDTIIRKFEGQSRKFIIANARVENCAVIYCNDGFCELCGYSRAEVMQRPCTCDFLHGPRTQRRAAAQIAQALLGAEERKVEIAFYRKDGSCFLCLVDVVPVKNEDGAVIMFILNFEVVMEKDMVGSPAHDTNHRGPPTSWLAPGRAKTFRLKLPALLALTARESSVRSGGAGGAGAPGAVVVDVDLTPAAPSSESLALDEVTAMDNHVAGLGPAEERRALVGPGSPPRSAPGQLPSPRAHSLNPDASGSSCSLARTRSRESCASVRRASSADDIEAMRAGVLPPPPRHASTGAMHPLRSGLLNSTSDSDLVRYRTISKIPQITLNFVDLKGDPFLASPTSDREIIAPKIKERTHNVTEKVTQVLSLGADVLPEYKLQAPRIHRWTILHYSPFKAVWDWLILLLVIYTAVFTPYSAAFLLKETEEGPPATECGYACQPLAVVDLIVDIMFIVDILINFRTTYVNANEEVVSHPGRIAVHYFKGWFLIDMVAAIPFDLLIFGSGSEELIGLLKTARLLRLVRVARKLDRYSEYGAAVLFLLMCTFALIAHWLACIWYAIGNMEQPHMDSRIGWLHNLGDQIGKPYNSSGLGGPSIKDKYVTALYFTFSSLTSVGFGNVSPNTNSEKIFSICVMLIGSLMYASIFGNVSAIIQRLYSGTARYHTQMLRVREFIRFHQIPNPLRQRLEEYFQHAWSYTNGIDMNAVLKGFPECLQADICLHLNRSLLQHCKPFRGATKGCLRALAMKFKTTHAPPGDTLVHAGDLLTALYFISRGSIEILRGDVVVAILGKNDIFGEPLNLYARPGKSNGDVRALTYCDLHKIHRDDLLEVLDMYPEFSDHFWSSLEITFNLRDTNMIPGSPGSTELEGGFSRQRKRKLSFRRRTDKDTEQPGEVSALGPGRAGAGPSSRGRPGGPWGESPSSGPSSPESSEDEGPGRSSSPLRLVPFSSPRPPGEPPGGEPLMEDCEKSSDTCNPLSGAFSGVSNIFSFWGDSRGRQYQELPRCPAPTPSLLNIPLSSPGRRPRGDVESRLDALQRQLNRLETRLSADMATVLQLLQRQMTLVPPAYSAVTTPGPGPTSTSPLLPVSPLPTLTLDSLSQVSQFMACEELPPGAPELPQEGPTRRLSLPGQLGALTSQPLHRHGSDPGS
Chain of Somatostatin receptor type 5 (P35346 whole entry): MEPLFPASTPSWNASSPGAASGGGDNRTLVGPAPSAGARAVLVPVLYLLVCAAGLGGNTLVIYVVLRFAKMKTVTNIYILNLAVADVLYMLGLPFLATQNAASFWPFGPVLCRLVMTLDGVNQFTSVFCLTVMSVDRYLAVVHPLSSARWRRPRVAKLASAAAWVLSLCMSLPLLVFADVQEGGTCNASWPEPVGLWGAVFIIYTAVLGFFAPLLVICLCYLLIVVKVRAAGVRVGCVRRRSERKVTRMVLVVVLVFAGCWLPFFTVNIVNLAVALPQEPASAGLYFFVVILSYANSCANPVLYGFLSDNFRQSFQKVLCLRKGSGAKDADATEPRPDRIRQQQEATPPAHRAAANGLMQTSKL
Chain of Somatostatin receptor type 2 (P30874 whole entry): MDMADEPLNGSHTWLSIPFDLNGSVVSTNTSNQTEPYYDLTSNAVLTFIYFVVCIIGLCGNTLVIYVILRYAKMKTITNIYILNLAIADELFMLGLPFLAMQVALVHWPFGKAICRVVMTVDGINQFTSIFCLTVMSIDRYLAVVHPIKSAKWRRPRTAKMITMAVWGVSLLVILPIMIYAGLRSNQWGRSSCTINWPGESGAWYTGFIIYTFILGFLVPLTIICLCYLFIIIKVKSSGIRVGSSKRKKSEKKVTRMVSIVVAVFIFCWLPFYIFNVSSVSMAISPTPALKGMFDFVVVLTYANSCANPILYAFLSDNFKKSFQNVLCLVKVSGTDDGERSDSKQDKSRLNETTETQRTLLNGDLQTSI

As to `CCOC(=O)c1ccc(C2(c3cnn(C)c3)N[C@@H](c3nc(-c4ccc(F)cc4)c[nH]3)Cc3c2[nH]c2ccccc32)nc1` (single isomer, unassigned; 9B) [listing 1 of 2 here], the IC50 (commonly the midpoint of a concentration-inhibition curve) is 14.2 nM in data set [1], 2.91 nM in data set [2] and 31.6 nM in data set [3].

Consider `CCOC(=O)c1cccc(C2(c3cnn(C)c3)N[C@@H](c3nc(-c4ccc(F)cc4)c[nH]3)Cc3c2[nH]c2ccccc32)n1` (single isomer, unassigned; 6B) [listing 1 of 2 here], for which the 50% inhibitory concentration (IC50) in data set [1] was 3.48 nM; in data set [2], 1.52 nM; in [4], 0.7 nM; in data set [3], 5.36 nM.

As for `Cn1cc(C2(c3cccc(C(=O)O)n3)N[C@@H](c3nc(-c4ccc(F)cc4)c[nH]3)Cc3c2[nH]c2ccccc32)cn1` (single isomer, unassigned; 2A) [listing 1 of 2 here], the IC50 in data set [1] is 34 nM; in [2], 4.41 nM; in data set [4], 3.93 nM; in [3] it was 67 nM.

`CCOC(=O)c1ccc(C2(c3cnn(C)c3)N[C@@H](c3nc(-c4ccc(F)cc4)c[nH]3)Cc3c2[nH]c2ccccc32)nc1` (single isomer, unassigned; 9A) [listing 1 of 2 here]: the results for the half-inhibitory concentration (IC50) in data set [1], in [2] and in data set [3] were 1.53 nM, 1.72 nM and 5.25 nM, respectively.

As to `Cn1cc(C2(c3ccc(C(=O)O)cn3)N[C@@H](c3nc(-c4ccc(F)cc4)c[nH]3)Cc3c2[nH]c2ccccc32)cn1` (single isomer, unassigned; 5B) [listing 1 of 2 here], the inhibition (usually the change of the read-out against control, counted positive when it falls) in data set [5] was 51%.

As for `Cn1cc([C@]2(c3cncc(C(=O)O)c3)N[C@@H](c3nc(-c4ccc(F)cc4)c[nH]3)Cc3c2[nH]c2ccccc32)cn1`, the results for the IC50 in [1], in data set [2] and in [3] were 2.9 nM, 10.8 nM and 6.12 nM, respectively. Moreover, in data set [5], the inhibition worked out at 80%.

`Cn1cc(C2(c3cccc(C(=O)O)n3)N[C@@H](c3nc(-c4ccc(F)cc4)c[nH]3)Cc3c2[nH]c2ccccc32)cn1` (single isomer, unassigned; 2A) [listing 2 of 2 here]: in data set [5], the inhibition amounted to 101%.

As for `CCOC(=O)c1cccc(C2(c3cnn(C)c3)N[C@@H](c3nc(-c4ccc(F)cc4)c[nH]3)Cc3c2[nH]c2ccccc32)n1` (single isomer, unassigned; 6B) [listing 2 of 2 here], in data set [5], the inhibition is 87%.

Turning to `Cn1cc(C2(c3ccc(C(=O)O)cn3)N[C@@H](c3nc(-c4ccc(F)cc4)c[nH]3)Cc3c2[nH]c2ccccc32)cn1` (single isomer, unassigned; 5A) [listing 1 of 2 here], in data set [5], the inhibition is 87%.

`CCOC(=O)c1cccc(C2(c3cnn(C)c3)N[C@@H](c3nc(-c4ccc(F)cc4)c[nH]3)Cc3c2[nH]c2ccccc32)n1` (single isomer, unassigned; 6A) [listing 1 of 2 here]: the 50% inhibitory concentration (IC50) stood at 0.58 nM in [1], 0.83 nM in data set [2], 0.41 nM in [4] and 1.97 nM in data set [3].

Turning to `CCOC(=O)c1cccc(C2(c3cnn(C)c3)N[C@@H](c3nc(-c4ccc(F)cc4)c[nH]3)Cc3c2[nH]c2ccccc32)n1` (single isomer, unassigned; 6A) [listing 2 of 2 here], in data set [5], the inhibition was determined as 80%.

Regarding `Cn1cc(C2(c3cccc(C(=O)O)n3)N[C@@H](c3nc(-c4ccc(F)cc4)c[nH]3)Cc3c2[nH]c2ccccc32)cn1` (single isomer, unassigned; 2B) [listing 1 of 2 here], in data set [5], the inhibition was found to be 69%.

With `CCOC(=O)c1cncc([C@@]2(c3cnn(C)c3)N[C@@H](c3nc(-c4ccc(F)cc4)c[nH]3)Cc3c2[nH]c2ccccc32)c1`, the IC50 in data set [1] came out at 8.37 nM; in [6], 2520 nM; in data set [2] it was 3.36 nM; in data set [3] it was 24 nM. Moreover, the inhibition in data set [5] was 107%.

With `Cn1cc(C2(c3ccc(C(=O)O)cn3)N[C@@H](c3nc(-c4ccc(F)cc4)c[nH]3)Cc3c2[nH]c2ccccc32)cn1` (single isomer, unassigned; 5A) [listing 2 of 2 here], in [1], the IC50 was 57.1 nM.

With `Cn1cc(C2(c3ccc(C(=O)O)cn3)N[C@@H](c3nc(-c4ccc(F)cc4)c[nH]3)Cc3c2[nH]c2ccccc32)cn1` (single isomer, unassigned; 5B) [listing 2 of 2 here], in [1], the IC50 came out at 1860 nM.

Turning to `Cn1cc([C@@]2(c3cncc(C(=O)O)c3)N[C@@H](c3nc(-c4ccc(F)cc4)c[nH]3)Cc3c2[nH]c2ccccc32)cn1`, the IC50 in data set [1] came to 0.16 nM; in [2], 1.22 nM; in data set [3] it was 0.52 nM. Also, the inhibition in data set [5] was 67%.

Turning to `Cn1cc(C2(c3cc(C(=O)O)ccn3)N[C@@H](c3nc(-c4ccc(F)cc4)c[nH]3)Cc3c2[nH]c2ccccc32)cn1` (single isomer, unassigned; 3B) [listing 1 of 2 here], in data set [5], the inhibition came to 70%.

Turning to `Cn1cc(C2(c3cc(C(=O)O)ccn3)N[C@@H](c3nc(-c4ccc(F)cc4)c[nH]3)Cc3c2[nH]c2ccccc32)cn1` (single isomer, unassigned; 3B) [listing 2 of 2 here], the results for the IC50 in data set [1], in data set [2] and in data set [3] were 17.1 nM, 72.7 nM and 52.3 nM, respectively.

For the compound `CCOC(=O)c1cncc([C@]2(c3cnn(C)c3)N[C@@H](c3nc(-c4ccc(F)cc4)c[nH]3)Cc3c2[nH]c2ccccc32)c1`, the IC50 in data set [1] came to 0.35 nM; in [6], 2260 nM; in [2] it was 0.78 nM; in data set [3], 0.15 nM. For the same compound, in [5], the inhibition came to 99%.

Turning to `Cn1cc(C2(c3cc(C(=O)O)ccn3)N[C@@H](c3nc(-c4ccc(F)cc4)c[nH]3)Cc3c2[nH]c2ccccc32)cn1` (single isomer, unassigned; 3A) [listing 1 of 2 here], in data set [7], the inhibition in vivo at 1 mg/kg came out at 64%. Besides, the concentration at 2.5 h in [8] came to 0.074 µM; in data set [17], 0.002 µM; in [19] it was 0.003 µM. Moreover, the Activity entry in [9] is reported as “Non-toxic”. Further, the bioavailability – broadly, the share of a dose that reaches the circulation, judged against a reference dose that is usually intravenous – in [10] amounted to 1.5%. In data set [11], the half-life (commonly the time in which the quantity being followed falls by half) was 2.62 h. Also, the 50% inhibitory concentration (IC50) in data set [12] was > 10000 nM; in data set [15], > 10000 nM; in data set [1] it was 0.73 nM; in [2], 2.13 nM; in [4] it was 1.72 nM; in data set [20], > 10000 nM. The figures for the IC50 in data set [21] and in data set [3] were > 10000 nM and 1.71 nM, respectively. The inhibition in vivo at 3 mg/kg in data set [13] and in [18] was 24% each time. Besides, the Cmax (in general, the peak of the concentration-time curve) at 0.5 h came out at 38 µM in data set [14], 909 µM in data set [16] and 199 µM in [24]. In addition, the clearance (usually the rate of elimination divided by the concentration) in [22] was 15.6 mL/min/kg. Moreover, the inhibition in vivo at 10 mg/kg in data set [23] was found to be 35%.

As to `CCOC(=O)c1ccnc(C2(c3cnn(C)c3)N[C@@H](c3nc(-c4ccc(F)cc4)c[nH]3)Cc3c2[nH]c2ccccc32)c1` (single isomer, unassigned), the IC50 in [1] amounted to 0.36 nM; in data set [2], 0.64 nM; in [4] it was 0.41 nM; in data set [3] it was 0.78 nM. Further, in data set [5], the inhibition came out at 91%.

With `CCOC(=O)c1ccc(C2(c3cnn(C)c3)N[C@@H](c3nc(-c4ccc(F)cc4)c[nH]3)Cc3c2[nH]c2ccccc32)nc1` (single isomer, unassigned; 9A) [listing 2 of 2 here], the inhibition in data set [5] stood at 96%.

For the compound `CCOC(=O)c1ccnc([C@@]2(c3cnn(C)c3)N[C@@H](c3nc(-c4ccc(F)cc4)c[nH]3)Cc3c2[nH]c2ccccc32)c1`, the IC50 in [1] came to 14.7 nM; in data set [2], 4.87 nM; in data set [3], 47.1 nM. Moreover, in data set [5], the inhibition is 85%.

For the compound `Cn1cc(C2(c3cccc(C(=O)O)n3)N[C@@H](c3nc(-c4ccc(F)cc4)c[nH]3)Cc3c2[nH]c2ccccc32)cn1` (single isomer, unassigned; 2B) [listing 2 of 2 here], the IC50 stood at 111 nM in data set [1], 74.7 nM in data set [2] and 105 nM in data set [3].

For `CCOC(=O)c1ccc(C2(c3cnn(C)c3)N[C@@H](c3nc(-c4ccc(F)cc4)c[nH]3)Cc3c2[nH]c2ccccc32)nc1` (single isomer, unassigned; 9B) [listing 2 of 2 here], the inhibition in data set [5] amounted to 66%.

Turning to `Cn1cc(C2(c3cc(C(=O)O)ccn3)N[C@@H](c3nc(-c4ccc(F)cc4)c[nH]3)Cc3c2[nH]c2ccccc32)cn1` (single isomer, unassigned; 3A) [listing 2 of 2 here], the inhibition in data set [5] is 81%.
